For the first test, the target named is P2X7 receptor (Homo sapiens (Human), UniProt Q99572). Put plainly: P2X7 FLIPR assay (BzATP-stimulated calcium fluorescence, antagonist IC50). Type of test: cell-based.
Sequence of P2X7 receptor (Q99572 whole entry): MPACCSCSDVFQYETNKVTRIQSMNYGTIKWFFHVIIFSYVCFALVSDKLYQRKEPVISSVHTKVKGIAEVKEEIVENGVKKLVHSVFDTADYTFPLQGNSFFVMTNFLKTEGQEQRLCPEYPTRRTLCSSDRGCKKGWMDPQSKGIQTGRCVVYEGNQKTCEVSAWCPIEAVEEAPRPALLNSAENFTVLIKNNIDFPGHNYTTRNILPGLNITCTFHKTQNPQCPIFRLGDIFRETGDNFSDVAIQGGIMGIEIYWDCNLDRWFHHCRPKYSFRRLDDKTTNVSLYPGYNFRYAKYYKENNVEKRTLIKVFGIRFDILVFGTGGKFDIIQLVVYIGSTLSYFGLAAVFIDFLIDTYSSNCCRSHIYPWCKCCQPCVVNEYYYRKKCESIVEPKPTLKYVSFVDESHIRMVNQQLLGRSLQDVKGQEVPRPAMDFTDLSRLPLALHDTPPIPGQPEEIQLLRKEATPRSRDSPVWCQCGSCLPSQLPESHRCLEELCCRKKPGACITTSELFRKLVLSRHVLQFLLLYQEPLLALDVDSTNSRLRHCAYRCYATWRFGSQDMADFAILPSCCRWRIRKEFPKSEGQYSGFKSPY
Details: not given
In short, it runs like this:
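Cells expressing P2X7 receptor (human, rat or mouse), plated 24 hours earlier in low-serum medium, loaded with Fluo-4 NW dye (30 min 37° C, 30 min room temperature).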
As to `O=C(NCC(CC1CC1)c1ccc(C(F)F)nc1)c1cccc(F)c1Cl` (single isomer, unassigned; (+)) [(+)2-chloro-N-[3-cyclopropyl-2-[6-(difluoromethyl)-3-pyridyl] [(+)2-chloro-N-[3-cyclopropyl-2-[6-(difluoromethyl)-3-pyridyl]propyl]-3-fluoro-benzamide], the IC50 turned out to be 800 nM.
Still for that read-out and setting: then `O=C(NCC(CC1(C(F)(F)F)CC1)c1ccc(C2CC2)nc1)c1cccc(Cl)c1Cl` (centres unmarked) [2,3-dichloro-N-[2-(6-cyclopropyl-3-pyridyl)-3-[1-(trifluoromethyl)cyclopropyl]propyl]benzamide], with 15 nM; and `O=C(NCC(c1ccc(F)cc1)c1ccc(C(F)(F)F)nc1)c1cccc(F)c1Cl` (single isomer, unassigned; (-)) [(−)2-chloro-3-fluoro-N-[2-(4-fluorophenyl)-2-[6-(trifluorome] [(−)2-chloro-3-fluoro-N-[2-(4-fluorophenyl)-2-[6-(trifluoromethyl)-3-pyridyl]ethyl]benzamide], with 7 nM.
Still for that read-out and setting: then `COc1cccc(C(=O)NCC(CC2CC2)c2cnc(C(F)(F)F)nc2)c1C` (single isomer, unassigned; (-)) [(−)N-[3-cyclopropyl-2-[2-(trifluoromethyl)pyrimidin-5-yl]pro] [(−)N-[3-cyclopropyl-2-[2-(trifluoromethyl)pyrimidin-5-yl]propyl]-3-methoxy-2-methyl-benzamide], with 1.4 nM; and `Cc1c(F)cccc1C(=O)NCC1(c2ccc(C(F)(F)F)nc2)CCC(F)(F)CC1` [N-((4,4-difluoro-1-(6-(trifluoromethyl)pyridin-3-yl)cyclohexyl)methyl)-3-fluoro-2-methylbenzamide], with 4 nM.
Same read-out and setting: to `O=C(NCC(c1ccc(F)cc1)c1cnc(C(F)(F)F)nc1)c1c(F)cccc1Cl` (single isomer, unassigned; (+)) [(+)2-chloro-6-fluoro-N-[2-(4-fluorophenyl)-2-[2-(trifluorome] [(+)2-chloro-6-fluoro-N-[2-(4-fluorophenyl)-2-[2-(trifluoromethyl)pyrimidin-5-yl]ethyl]benzamide] belongs 6.7 nM; to `O=C(NCC(CC1CC1)c1ccc(C(F)(F)F)nc1)c1ccccc1Cl` (centres unmarked) [2-chloro-N-[3-cyclopropyl-2-[6-(trifluoromethyl)-3-pyridyl]propyl]benzamide], 3.4 nM; to `O=C(NCC1(c2ccc(Cl)cc2)CCOCC1)c1ccccc1C(F)(F)F` [N-[4-(4-Chloro-phenyl)-tetrahydro-pyran-4-ylmethyl]-2-trifluoromethyl-benzamide], 1200 nM.
As for `O=C(NCC(c1ccc(F)cc1)c1ccc(C(F)(F)F)nc1)c1cccc(Cl)c1Cl` (single isomer, unassigned; (+)) [(+)2,3-dichloro-N-[2-(4-fluorophenyl)-2-[6-(trifluoromethyl)] [(+)2,3-dichloro-N-[2-(4-fluorophenyl)-2-[6-(trifluoromethyl)-3-pyridyl]ethyl]benzamide], the IC50 turned out to be 12 nM.
Same read-out and setting: then `O=C(NC[C@H](c1cnc(C(F)(F)F)nc1)C1CCOCC1)c1cccc(Cl)c1Cl` (single isomer, unassigned) [(+)2,3-dichloro-N-[2-tetrahydropyran-4-yl-2-[2-trifluoromethyl)pyrimidin-5-yl]ethyl]benzamide], with 4.1 nM.
Still for that read-out and setting: then `O=C(NCC(CC1CC1)c1cnc(C(F)(F)F)nc1)c1c(Cl)cccc1Cl` (single isomer, unassigned; (-)) [(−)2,6-dichloro-N-[3-cyclopropyl-2-[2-(trifluoromethyl)pyrim] [(−)2,6-dichloro-N-[3-cyclopropyl-2-[2-(trifluoromethyl)pyrimidin-5-yl]propyl]benzamide], with 0.82 nM.
On the same count and under the same terms, then `COc1cccc(C(=O)NCC2(c3ccc(C(F)(F)F)nc3)CCC(F)(F)CC2)c1Cl` [2-chloro-N-((4,4-difluoro-1-(6-(trifluoromethyl)pyridin-3-yl)cyclohexyl)methyl)-3-methoxybenzamide], with 7.1 nM; and `O=C(NCC1(c2cncc(F)c2)CCC(F)(F)CC1)c1cccc(Cl)c1Cl` [2,3-dichloro-N-((4,4-difluoro-1-(5-fluoropyridin-3-yl)cyclohexyl)methyl)benzamide], with 1.2 nM.
In the case of `CC(NC(=O)c1cccc(Cl)c1Cl)C1(c2ccc(Br)nc2)CCC(F)(F)CC1` (centres unmarked) [N-(1-(1-(6-bromopyridin-3-yl)-4,4-difluorocyclohexyl)ethyl)-2,3-dichlorobenzamide], the IC50 was 43 nM.
Still for that read-out and setting: then `CC(CNC(=O)c1ccccc1Cl)(CC1CC1)c1cnc(C(F)(F)F)nc1` (single isomer, unassigned; (+)) [(+)2-chloro-N-[3-cyclopropyl-2-methyl-2-[2-(trifluoromethyl)] [(+)2-chloro-N-[3-cyclopropyl-2-methyl-2-[2-(trifluoromethyl)pyrimidin-5-yl]propyl]benzamide], with 460 nM; and `O=C(NCC1(c2cnc(C(F)(F)F)nc2)CCOCC1)c1c(F)cccc1Cl` [2-chloro-6-fluoro-N-[[4-[2-(trifluoromethyl)pyrimidin-5-yl]tetrahydropyran-4-yl]methyl]benzamide], with 1600 nM.
The same measure, in the same setting: then `O=C(NCC(c1ccc(Cl)cc1)C1CCOCC1)c1c(F)cccc1Cl` (centres unmarked) [2-chloro-N-[2-(4-chlorophenyl)-2-tetrahydropyran-4-yl-ethyl]-6-fluoro-benzamide], with 30 nM.
On the same count and under the same terms, to `O=C(NCC(CC1(C(F)(F)F)CC1)c1cnc(C(F)(F)F)nc1)c1cccc(F)c1Cl` (single isomer, unassigned; (+)) [(+)2-chloro-3-fluoro-N-[3-[1-(trifluoromethyl)cyclopropyl]-2] [(+)2-chloro-3-fluoro-N-[3-[1-(trifluoromethyl)cyclopropyl]-2-[2-(trifluoromethyl)pyrimidin-5-yl]propyl]benzamide] belongs 4.5 nM.
For `Cc1ncc(C2(C(C)NC(=O)c3cccc(F)c3Cl)CCC(F)(F)CC2)cn1` (centres unmarked) [2-chloro-N-[1-[4,4-difluoro-1-(2-methylpyrimidin-5-yl)cyclohexyl]ethyl]-3-fluoro-benzamide], the IC50 was 2000 nM.
Regarding `O=C(NCC(CC1(C(F)(F)F)CC1)c1cnc(C(F)(F)F)nc1)c1cccc(Cl)c1Cl` (single isomer, unassigned; (+)) [(+)2,3-dichloro-N-[3-[1-(trifluoromethyl)cyclopropyl]-2-[2-(] [(+)2,3-dichloro-N-[3-[1-(trifluoromethyl)cyclopropyl]-2-[2-(trifluoromethyl)pyrimidin-5-yl]propyl]benzamide], the IC50 came out at 1.6 nM.
The same measure, in the same setting: to `O=C(NCC(CC1CC1)c1ccc(C(F)(F)F)nc1)c1cccc(Cl)c1F` (centres unmarked) [3-chloro-N-(3-cyclopropyl-2-(6-(trifluoromethyl)pyridin-3-yl)propyl)-2-fluorobenzamide] belongs 660 nM; to `O=C(NCC(c1ccccc1)c1ccc(C(F)(F)F)nc1)c1c(Cl)cccc1Cl` (single isomer, unassigned; (-)) [(−)2,6-dichloro-N-[2-phenyl-2-[6-(trifluoromethyl)-3-pyridyl] [(−)2,6-dichloro-N-[2-phenyl-2-[6-(trifluoromethyl)-3-pyridyl]ethyl]benzamide], 18 nM.
Still for that read-out and setting: to `O=C(NCC1(c2ccc(F)nc2)CCC(F)(F)CC1)c1cccc(F)c1F` [N-((4,4-difluoro-1-(6-fluoropyridin-3-yl)cyclohexyl)methyl)-2,3-difluorobenzamide] belongs 290 nM; to `Cc1ccc(C(CNC(=O)c2cccc(Cl)c2Cl)CC(C)C)cn1` (centres unmarked) [2,3-Dichloro-N-[4-methyl-2-(6-methyl-pyridin-3-yl)-pentyl]-benzamide], 1 nM; to `O=C(NCC(CC1CC1)c1ccc(C(F)(F)F)nc1)c1c(Cl)cccc1Cl` (single isomer, unassigned; (+)) [(+)2,6-dichloro-N-[3-cyclopropyl-2-[6-(trifluoromethyl)-3-py] [(+)2,6-dichloro-N-[3-cyclopropyl-2-[6-(trifluoromethyl)-3-pyridyl]propyl]benzamide], 0.89 nM.
Regarding `O=C(NCC(c1ccncc1)c1ccc(C(F)(F)F)nc1)c1cccc(Cl)c1Cl` (centres unmarked) [2,3-dichloro-N-[2-(4-pyridyl)-2-[6-(trifluoromethyl)-3-pyridyl]ethyl]benzamide], the IC50 was determined as 200 nM.
With `Cc1ncc(C(CNC(=O)c2c(Cl)cccc2Cl)CC2CC2)cn1` (single isomer, unassigned; (+)) [(+)2,6-dichloro-N-[3-cyclopropyl-2-(2-methylpyrimidin-5-yl)p] [(+)2,6-dichloro-N-[3-cyclopropyl-2-(2-methylpyrimidin-5-yl)propyl]benzamide], the IC50 came out at 220 nM.
The same measure, in the same setting: to `Cc1ncc(C(CNC(=O)c2cccc(Cl)c2Cl)C2CCOCC2)cn1` (single isomer, unassigned; (+)) [(+)2,3-dichloro-N-[2-(2-methylpyrimidin-5-yl)-2-tetrahydropy] [(+)2,3-dichloro-N-[2-(2-methylpyrimidin-5-yl)-2-tetrahydropyran-4-yl-ethyl]benzamide] belongs 28 nM; to `Cc1ccc(Cl)c(C(=O)NCC2(c3ccc(F)nc3)CCC(F)(F)CC2)c1` [2-chloro-N-[[4,4-difluoro-1-(6-fluoro-3-pyridyl)cyclohexyl]methyl]-5-methyl-benzamide], 0.76 nM.
Still for that read-out and setting: then `O=C(NCC1(c2ccc(C(F)(F)F)nc2)CCOCC1)c1cccc(Cl)c1Cl` [2,3-dichloro-N-((4-(6-(trifluoromethyl)pyridin-3-yl)tetrahydro-2H-pyran-4-yl)methyl)benzamide], with 52 nM.

Still in this test, the particulars now being: listed as (+)2-chloro-N-[3-cyclopropyl-2-(6-fluoro-3-pyridyl)propyl]benzamide.
Take `O=C(NCC(CC1CC1)c1ccc(F)nc1)c1ccccc1Cl` (single isomer, unassigned; (+)) [Example 4w, (+)-2-chloro-N-(3-cyclopropyl-2-(6-fluoropyridin-3-A)propyl)benzamide]: the IC50 amounted to 510 nM.

Still in this test, the particulars now being: listed as (+)2-chloro-N-[3-cyclopropyl-2-[6-(trifluoromethyl)-3-pyridyl]propyl]benzamide.
Take `O=C(NCC(CC1CC1)c1ccc(C(F)(F)F)nc1)c1ccccc1Cl` (single isomer, unassigned; (+)) [Example 4a, (+)-2-Chloro-N-[3-cyclopropyl-2-[6-(tiifluoromethyl)-3-pyridyl]propyl]benzamide]: the IC50 came to 63 nM.

Usually IC50 stands for the concentration that inhibits the measured activity by half.

Source of the values: US9102591B2, “Benzamides” (H. Lundbeck A/S, priority 2012, dated 2015).
